{
  "source": "patent US7638269B2",
  "about": "“Viral capsid assembly intermediates and methods of production” (priority 1997, dated 2009)",
  "molecules": {"B1": {"name": "WGHP68-Tr1: 379 amino acid truncated form of wheat germ HP68, stop codon before the second nucleotide-binding domain (protein)", "chain": "MADRLTRIAIVSEDKCKPKKCRQECKKSCPVVKTGKLCIEVSPVAKLAFISEELCIGCGICVKKCPFDAIEIINLPKDLEKDTTHRYGPNTFKLHRLPVPRPGQVLGLVGTNGIGKSTALKVLAGKLKPNLGRFKNPPDWQEILTYFRGSELQNYFTRILEDNLKAIIKPQYVDHIPKAVQGNVGQVLEQKDERDMKNELCVDLELNQVIDRNVGDLSGGELQRFAIAVVAVQSAEIYMFDEPSSYLDVKQRLKAARVIRSLLRSNSYVIVVEHDLSVLDYLSDFICCLYGKPGAYGVVTLPFSVREGINIFLAGFVPTENLRFRDESLTFKIAETQESAEEVATYQRYKYPTMSKTQGNFKLSVVEGEFTDSQIVVM"}, "B2": {"name": "WGHP68-GST: fusion protein of wheat germ HP68 with GST at the N-terminus (protein)", "chain": "MADRLTRIAIVSEDKCKPKKCRQECKKSCPVVKTGKLCIEVSPVAKLAFISEELCIGCGICVKKCPFDAIEIINLPKDLEKDTTHRYGPNTFKLHRLPVPRPGQVLGLVGTNGIGKSTALKVLAGKLKPNLGRFKNPPDWQEILTYFRGSELQNYFTRILEDNLKAIIKPQYVDHIPKAVQGNVGQVLEQKDERDMKNELCVDLELNQVIDRNVGDLSGGELQRFAIAVVAVQSAEIYMFDEPSSYLDVKQRLKAARVIRSLLRSNSYVIVVEHDLSVLDYLSDFICCLYGKPGAYGVVTLPFSVREGINIFLAGFVPTENLRFRDESLTFKIAETQESAEEVATYQRYKYPTMSKTQGNFKLSVVEGEFTDSQIVVMLGENGTGKTTFIRMLAGLLKPDTMEGTEVEIPEFNVSYKPQKISPKFQHPVRHLLHSKIRDSYTHPQFVSDVMKPLQIEQLMDQEVINLSGGELQRVALCLCLGKPADIYLIDEPSAYLDSEQRIVASKVIKRFILHAKKTAFIVEHDFIMATYLADKVIVYEGLASIDCTANAPQSLVSGMNKFLSHLDITFRRDPTNYRPRINKLESTKDREQKNAGSYYYLDD", "modifications": "left off: a dimerising Fc or GST", "notes": "fusion protein of wheat germ HP68 with GST at the N-terminus"}},
  "key": {"[1]": {"system": "immature HIV capsids (Gag Pr55)", "assay": "Cell-free translation and assembly of HIV capsids in wheat germ extract programmed with Gag transcript", "type": "biochemical", "conditions": "for Material in fractions corresponding to Final Capsid / Material in fractions corresponding to complex A / Material in fractions corresponding to complexes B/C: velocity sedimentation, apyrase added post-translationally, detergent cotranslationally", "procedure": "Translation of the transcription products was carried out in wheat germ extract containing ^35S methionine (ICN Pharmaceuticals, Costa Mesa, Calif.). The wheat germ extract was prepared as described by Erickson and Blobel (1983) as modified below. Reactions were performed as previously described (Lingappa, J. R., et al., J. Cell. Biol. (1984) 125:99-111), except for modifications noted below.\nA 25 microliter wheat germ transcription/translation reaction mixture contained: 5 microliters Gag transcript (prepared as described in transcription methods), 5 microliters wheat germ extract (prepared as described in wheat germ preparation; preferably using the high speed supernatant detailed in Example 4), 5 microliters 35-S Energy Mix 5× stock (Sigma Chemical Co., St. Louis, Mo.), 2.5 microliters Compensating Buffer (Sigma Chemical Co.), 1.0 microliter 40 mM MgAcetate (Sigma Chemical Co.), 2.0 microliters […] Myristoyl CoA (made up in 20 mM Tris Acetate, pH 7.6; Sigma Chemical Co.), 3.75 microliters 20 mM Tris Acetate buffer, […] (U.S. Biochemicals; Cleveland, Ohio), 0.25 microliter Creatine Kinase (4 mg/ml stock in 50% glycerol, 10 mM Tris Acetate; Boehringer Mannheim, Indianapolis, Ind.), 0.25 microliter bovine tRNA (10 mg/ml stock; Sigma Chemical Co.), and 0.25 microliter RNAse Inhibitor (20 units/50; Promega).\nMyristoyl coenzyme A (MCoA; Sigma, St. Louis, Mo.) was added at a concentration of 10 micromolar at the start of translation when indicated. Translation reactions ranged in volume from 20 to 100 microliters and were incubated at 25° C. for 150 min. Some reactions were adjusted to a final concentration of the following agents at tunes indicated in the figures and specification: 0.2 μM emetine (Sigma); 1.0 units apyrase (Sigma) per mL translation; 0.002%, 0.1%, or 1.0% “NIKKOL”. Cell-free translation and assembly reactions were also carried out successfully in rabbit reticulocyte lysate prepared as described previously (Merrick, W. C., Methods Enzymol. 101:606-615 (1983)) or obtained from commercial suppliers (Promega, Madison, Wis.). In pulse-chase experiments, translation reactions contained ^35S cysteine (Amersham Life Sciences, Cleveland, Ohio) for radiolabeling. After 4 min translation reaction time, 3 mM unlabeled cysteine was added, and the reaction was continued at 25° C. for variable chase times as indicated in the experiments described herein.\nWhere indicated, wheat germ extract prepared as described in Example 1 was centrifuged at either 50,000 rpm for 21 min or 100,000 rpm for 30 min in a TLA 100 rotor (Beckman Instruments, Palo Alto, Calif.). The supernatant (high-speed supernatant, HSS) of the 50,000 rpm spin was used for cell-free translation and assembly reactions. The pellet of the 100,000 rpm spin (high speed pellet, HSP) was resuspended at a 5× concentration in buffer (25 mM Hepes pH 7.4, 4 mM MgAc, 100 mM KAc, 0.25M sucrose). Wheat germ extract adjusted to contain a concentration 0.5% “NIKKOL” was subjected to the same ultracentrifugation in parallel to generate the detergent treated high-speed pellet (HSPd). This pellet was washed twice with […] of the above non-detergent buffer in order to remove traces of detergent, and then resuspended as described above. Following treatment with emetine at […], 1.8 μL of HSP or HSPd was added to the […] cell-free reactions programmed with HSS. Control reactions were treated with the same volume of buffer at the same time. At the end of the 150 min incubation, reactions were separated into soluble and particulate fractions and analyzed as described above.\nThe cell-free translation/assembly system of the invention contains the components described in Part A, above. Example 1 provides details of an exemplary system derived from wheatgerm extract, which is capable of supporting translation and assembly of HIV capsids. Briefly, protein synthesis was initiated in the cell-free translation/assembly system by adding an mRNA that encodes Gag Pr55 protein. […]"}, "HBV capsids (HBV core)": {"system": "HBV capsids (HBV core)", "sequence (P03146 whole entry)": "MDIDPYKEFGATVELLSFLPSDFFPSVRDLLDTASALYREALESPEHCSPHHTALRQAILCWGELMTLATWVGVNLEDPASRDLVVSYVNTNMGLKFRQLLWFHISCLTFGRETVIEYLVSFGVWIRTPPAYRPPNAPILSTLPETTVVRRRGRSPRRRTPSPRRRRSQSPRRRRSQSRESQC", "type": "biochemical", "experimental": "The radiolabeled translation products were analyzed for formation of HBV core multimers by rae sedimentation on 10-50% sucrose gradients at 200,000 g for 1 h. Following fractionation of the gradients, the migration of radiolabeled core proteins was determined using SDS-PAGE, Coomassie staining, and autoradiography. Under these conditions, unlabeled protein standards of less than 12S, such as catalase, migrated in the first three fractions. […] The first region, at the top of the gradient (7) corresponds to the position of monomeric and small oligomeric core polypeptides, while the second region, in the middle of the gradient (M), corresponds to the position of authentic capsids. The third region, in the pellet (P), represents very high molecular weight structures. The possibility that either the pellet or the middle fraction consists of completed chains not yet released from ribosomes was ruled out by treatment of the translation products after completion of synthesis with EDTA, which is known to disassemble ribosomes (Sabatini et al., 1966).\nTo address this, pellet material was isolated by fractionating the products of a 30-min translation of HBV core on a sucrose gradient and resuspending the pellet in buffer. The resuspended pellet was divided into equal aliquots and treated either with aphyase or with buffer for 90 min at 24° C."}, "HIV-1 particle formation": {"system": "HIV-1 particle formation", "type": "cell-based", "conditions": "Cos-1 cells", "procedure": "Cos-1 cells were transfected using Gag expression plasmids pCMVRev and PSVGagRRE-R described in Simon et al, J. Virology, (1997) 71:1013-18. HP68 plasmids for mammalian expression were constructed by using PCR to insert the coding regions for WGHP68, amino acids 1-378, Nhe1/Xba1 of pCDNA 3.1 (Invitrogen). Coding regions of all constructs were sequenced. Cells were transfected using Gibco Lipofectamine (Cos-1) or Lipofectamine Plus (293T). All transfections used a constant amount of DNA (18 μg per 60 mm dish). Medium was changed 24 hours after transfection and harvest was performed 28 or 60 hours after transfection for immunofluorescence and immunoblotting respectively. For immunofluorescence, cells were fixed in paraformaldehyde, permeabilized with 1% triton, and incubated with mouse HIV-1 Gag antibody (1:50) and affinity-purified HuHP68 antiserum (1:2000), followed by Cy3- and Cy 2-coupled secondary (Jackson) (1:200). 178 cells were quantitated. For immunoblotting in FIG. 13 rat IgG was added to medium as a tracer at 10 μg/ml at the time of harvest, and cells were harvested in SDS sample buffer with boiling. For quantitation of immunoblotts, bands were compared to an immunoblot standard curve generated with known quantities of sample. […]"}, "[2]": {"system": "750S immature HIV-1 capsids", "assay": "HP68 immunodepletion-reconstitution of cell-free HIV-1 capsid assembly", "type": "biochemical", "procedure": "WG extract (150 μl) was immunodepleted for 45 min at 4° C. with 100 μl beads coupled to antibody against WGHP68. Cell-free reactions (15 μl) were programmed (Lingappa et al., J. Cell Biol. 136:567-81 (1997)) using non-depleted WG or depleted WG. To some reactions containing depleted WG, purified WGHP68-GST or HuHP68-GST fusion protein or GST alone was added (2 μl of approx. 20 ng/μl) at the start of the reaction. After 3 hours at 26° C., NP40 was added to a final concentration of 1% and reactions underwent velocity sedimentation (5 ml, 15-60% sucrose gradients, Beckman MLS55 rotor: 45,000 rpm, 45 min). Thirty fractions, collected using a fractionator, were analyzed by SDS-PAGE and AR, followed by densitometry of Gag in each lane. For Proteinase K digestion, aliquots of fractions from the 500S and 750S regions of the gradient were collected and subjected to a 10 min incubation at RT with either no Proteinase K or 0.1 μg/ml Proteinase K. Digestion was terminated by adding SDS and freezing. Samples were analyzed by SDS-PAGE and AR. Graphs show average of three independent experiments (+/−SEM).\nTo generate purified HP68, WGHP68 and HuHP68 were subcloned into a pGEX vector (Pharmacia), to encode fusion proteins containing GST at the N-terminus. […] Concentration of fusion protein and GST in eluate was determined using the Coomassie Plus protein assay (Pierce). […]"}, "[3]": {"conditions": "emetine added after 50 min, incubated to 150 min"}},
  "note": "“Also recorded” adds a separate entry of the source.",
  "data": [
    {"molecule": "Nc1ncnc2c1ncn2[C@@H]1O[C@H](COP(=O)(O)OP(=O)(O)NP(=O)(O)O)[C@@H](O)[C@H]1O", "note": "[AMP-PNP]", "values": [
      {"measurement": "reversal of the effect of ATP depletion on assembly", "setting": "[1]; added after apyrase treatment", "value": "not reversed"}
    ]},
    {"molecule": "O=C(O)CN(CCN(CC(=O)O)CC(=O)O)CC(=O)O", "note": "[EDTA]", "values": [
      {"measurement": "distribution of labeled core polypeptides in top, middle and pellet fractions", "setting": "HBV capsids (HBV core); treatment of translation products after completion of synthesis, 10 mM", "value": "largely unaffected; also recorded: had no effect"}
    ]},
    {"molecule": "CCCCCCCCCCCCCC(=O)SCCNC(=O)CCNC(=O)[C@H](O)C(C)(C)COP(=O)(O)OP(=O)(O)OC[C@H]1O[C@@H](n2cnc3c(N)ncnc32)[C@H](O)[C@@H]1OP(=O)(O)O", "note": "[MCoA, Myristoyl Coenzyme A]", "values": [
      {"measurement": "total amount of Pr55 synthesized", "setting": "[1]; 10 μM MCoA", "value": "had no effect on the total amount of Pr55 synthesized"},
      {"measurement": "assembly into capsids", "setting": "[1]; 10 μM MCoA added at 90 min, post-translational phase", "value": "very little assembly occurred"}
    ]},
    {"molecule": "CCCCCCCCCCCCOCCOCCOCCOCCOCCOCCOCCOCCO", "note": "[NIKKOL, octaethyleneglycol mono n-dodecyl ether]", "values": [
      {"measurement": "capsid assembly", "setting": "[1]; 0.002% added at start of translation, 10 μM MCoA", "value": "This effect was not observed"},
      {"measurement": "capsid assembly", "setting": "[1]; 0.1% added at start of translation, 10 μM MCoA", "value": "largely abolished capsid assembly"},
      {"measurement": "amount of assembly", "setting": "[1]; added after completion of the 150 min assembly reaction, up to 1.0%", "value": "did not diminish the amount of assembly"},
      {"measurement": "Gag polypeptide synthesis", "setting": "[1]; concentration of 0.1%", "value": "had no effect on Gag polypeptide synthesis"},
      {"measurement": "assembly", "setting": "[1]; emetine and 0.1% NIKKOL, post-translational phase 50 min into the reaction", "value": "assembly was dramatically reduced"},
      {"measurement": "Material in fractions corresponding to Final Capsid", "setting": "[1]", "value": 189},
      {"measurement": "Material in fractions corresponding to complex A", "setting": "[1]", "value": 2656},
      {"measurement": "Material in fractions corresponding to complexes B/C", "setting": "[1]", "value": 6130}
    ]},
    {"molecule": "CC[C@H]1CN2CCc3cc(OC)c(OC)cc3[C@@H]2C[C@@H]1C[C@H]1NCCc2cc(OC)c(OC)cc21", "note": "[emetine]", "values": [
      {"measurement": "effect on treatment of the isolated pellet with energy substrates or apyrase", "setting": "HBV capsids (HBV core)", "value": "did not affect the results"},
      {"measurement": "proportion of capsid assembly", "setting": "[1]; [3]", "value": "comparable to that of the untreated control"},
      {"measurement": "total Pr55 synthesis, of the control", "setting": "[1]; [3]", "value": 60, "unit": "%"}
    ]},
    {"molecule": "apyrase", "values": [
      {"measurement": "release of capsids from the isolated pellet", "setting": "HBV capsids (HBV core); resuspended pellet of a 30-min translation, 90 min at 24° C.", "value": "results in release of completed capsids from the pellet"},
      {"measurement": "amount of assembly (capsid stability)", "setting": "[1]; apyrase added after capsid assembly was completed", "value": "had no effect on the amount of assembly"},
      {"measurement": "total amount of Pr55 synthesis", "setting": "[1]; apyrase added after emetine at 50 min", "value": "did not change the total amount of Pr55 synthesis"},
      {"measurement": "capsid assembly", "setting": "[1]; apyrase added immediately after 0.2 μM emetine at 50 min, 150 min", "value": "dramatic reduction in capsid assembly"},
      {"measurement": "Material in fractions corresponding to Final Capsid", "setting": "[1]", "value": 133},
      {"measurement": "Material in fractions corresponding to complex A", "setting": "[1]", "value": 2851},
      {"measurement": "Material in fractions corresponding to complexes B/C", "setting": "[1]", "value": 5999}
    ]},
    {"molecule": "B1", "values": [
      {"measurement": "Gag and actin levels in cell lysates", "setting": "HIV-1 particle formation", "value": "remained unchanged"},
      {"measurement": "toxicity to cells", "setting": "HIV-1 particle formation", "value": "not toxic to cells"}
    ]},
    {"molecule": "B2", "values": [
      {"measurement": "total amount of radiolabeled Gag synthesized", "setting": "[2]; added to HP68 immunodepleted WG extract", "value": "had no effect"},
      {"measurement": "increase in the amount of 750S capsid", "setting": "[2]; added to HP68 immunodepleted WG extract programmed with HIV-1 Gag transcript", "value": 3, "unit": "fold"}
    ]}
  ]
}
